The values that follow come from paper PMC3023919 (Chemistry & biology, 2010).

In one experiment the target is hCB2 C137S (Homo sapiens, UniProt P34972, C134S). Nature of the experiment: Saturation-binding assay with [^3H]-CP55940. The note with it: HEK293 membranes; mean (95% CI).
The next experiment concerns the target hCB2 C7.38(284)A (Homo sapiens, UniProt P34972, C284A). Nature of the experiment: Saturation-binding assay with [^3H]-CP55940. To be noted: HEK293 membranes; mean (95% CI).
For the next experiment, the target named is hCB2 C1.39(40)S (Homo sapiens, UniProt P34972, C40S). The experiment can be described thus: Saturation-binding assay with [^3H]-CP55940. The note with it: HEK293 membranes, mean (95% CI).
Sequence of hCB2 C1.39(40)S (P34972 whole entry C40S): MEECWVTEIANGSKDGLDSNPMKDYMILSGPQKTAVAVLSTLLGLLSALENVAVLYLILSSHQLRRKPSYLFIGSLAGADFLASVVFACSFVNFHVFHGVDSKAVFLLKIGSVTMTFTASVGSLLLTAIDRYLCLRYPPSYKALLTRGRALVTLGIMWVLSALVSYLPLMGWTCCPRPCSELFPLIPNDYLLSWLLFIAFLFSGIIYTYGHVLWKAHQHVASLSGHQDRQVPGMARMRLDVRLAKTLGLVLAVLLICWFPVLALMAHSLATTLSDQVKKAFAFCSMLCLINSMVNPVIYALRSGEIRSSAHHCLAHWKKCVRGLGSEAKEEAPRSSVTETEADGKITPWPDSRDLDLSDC
The next experiment concerns the target hCB2 C7.42(288)S (Homo sapiens, UniProt P34972, C288S). The experiment can be described thus: Saturation-binding assay with [^3H]-CP55940. The note with it: HEK293 membranes; mean (95% CI).
Experiment [1] deals with hCB2 C7.38(284)7.42(288)S (Homo sapiens, UniProt P34972, C284S/C288S). Nature of the experiment: Saturation-binding assay with [^3H]-CP55940. To be noted: HEK293 membranes; mean (95% CI).
Sequence of hCB2 C7.38(284)7.42(288)S (P34972 whole entry C284S/C288S): as the sequence (P34972 whole entry C40S) above, with S40C, C284S, C288S counted along it
The target in the next experiment is hCB2 C175S (Homo sapiens, UniProt P34972, C175S). Nature of the experiment: Saturation-binding assay with [^3H]-CP55940. The note with it: HEK293 membranes; mean (95% CI).
Sequence of hCB2 C175S (P34972 whole entry C175S): as the sequence (P34972 whole entry C40S) above, with S40C, C175S counted along it
Experiment [2] concerns the target hCB2 C7.38(284)7.42(288)A (Homo sapiens, UniProt P34972, C284A/C288A). Nature of the experiment: Saturation-binding assay with [^3H]-CP55940. To be noted: HEK293 membranes; mean (95% CI).
The next experiment concerns the target hCB2 C7.42(288)A (Homo sapiens, UniProt P34972, C288A). The experiment can be described thus: Saturation-binding assay with [^3H]-CP55940. To be noted: HEK293 membranes; mean (95% CI).
Another experiment deals with hCB2 C6.47(257)S (Homo sapiens, UniProt P34972, C257S). Nature of the experiment: Saturation-binding assay with [^3H]-CP55940. To be noted: HEK293 membranes; mean (95% CI).
Sequence of hCB2 C6.47(257)S (P34972 whole entry C257S): as the sequence (P34972 whole entry C40S) above, with S40C, C257S counted along it
A further experiment addresses hCB2 C7.38(284)S (Homo sapiens, UniProt P34972, C284S). The experiment can be described thus: Saturation-binding assay with [^3H]-CP55940. To be noted: HEK293 membranes; mean (95% CI).
The target of a further experiment is hCB2 WT (Homo sapiens, UniProt P34972). Nature of the experiment: Saturation-binding assay with [^3H]-CP55940. The note with it: HEK293 membranes; mean (95% CI).
Sequence of hCB2 WT (P34972 whole entry): as the sequence (P34972 whole entry C40S) above, with S40C counted along it
Another experiment deals with hCB2 C313S (Homo sapiens, UniProt P34972, C313S). The experiment can be described thus: Saturation-binding assay with [^3H]-CP55940. To be noted: HEK293 membranes; mean (95% CI).
Sequence of hCB2 C313S (P34972 whole entry C313S): as the sequence (P34972 whole entry C40S) above, with S40C, C313S counted along it
The test system of a further experiment is hCB2 C6.47(257)S mutant. To be noted: competitive binding with [^3H]-WIN55212-2; ref Pei et al., 2008; cited from earlier work.
For the next experiment, the target named is hCB2. The note with it: read-out: hCB2 Ki; ref Rinaldi-Carmona et al., 1998; cited from earlier work.

Sequence of hCB2 C137S (P34972 whole entry C134S): as the sequence (P34972 whole entry C40S) above, with S40C, C134S counted along it
Sequence of hCB2 C7.42(288)S (P34972 whole entry C288S): as the sequence (P34972 whole entry C40S) above, with S40C, C288S counted along it
Sequence of hCB2 C7.38(284)S (P34972 whole entry C284S): as the sequence (P34972 whole entry C40S) above, with S40C, C284S counted along it
Sequence of hCB2 C7.42(288)A (P34972 whole entry C288A): as the sequence (P34972 whole entry C40S) above, with S40C, C288A counted along it
Sequence of hCB2 C7.38(284)A (P34972 whole entry C284A): as the sequence (P34972 whole entry C40S) above, with S40C, C284A counted along it
Sequence of hCB2 C7.38(284)7.42(288)A (P34972 whole entry C284A/C288A): as the sequence (P34972 whole entry C40S) above, with S40C, C284A, C288A counted along it

`CCCCCCC(C)(C)c1ccc([C@@H]2C[C@H](O)CC[C@H]2CCCO)c(O)c1` [[^3H]-CP55940]: the “[^3H]-CP55940 Bmax” value on hCB2 C137S is 1.50 (1.31~1.70) pmol/mg; on hCB2 C7.38(284)A it was 1.15 (1.03~1.26) pmol/mg; at hCB2 C1.39(40)S it was 5.45 (4.99~5.92) pmol/mg; on hCB2 C1.39(40)S (listed as CP55940), 5.45 pmol/mg; on hCB2 C7.42(288)S, 1.07 (1.01~1.13) pmol/mg; in experiment [1], 1.38 (1.28~1.48) pmol/mg. The “[^3H]-CP55940 Bmax” value on hCB2 C175S is recorded as 1.69 (1.61~1.78) pmol/mg; in [2] it was 1.12 (1.04~1.20) pmol/mg; on hCB2 C7.42(288)A it was 1.93 (1.69~2.17) pmol/mg; at hCB2 C6.47(257)S, 1.58 (1.50~1.66) pmol/mg; on hCB2 C7.38(284)S it was 1.28 (1.21~1.36) pmol/mg; on hCB2 WT, 1.68 (1.61~1.74) pmol/mg. In addition, the “[^3H]-CP55940 Bmax” value at hCB2 C313S is 1.07 (1.01~1.13) pmol/mg.
For orientation: Ki means the dissociation constant of the complex between target and ligand, obtained from inhibition or displacement. Take SR144528: the “increased affinity relative to WT hCB2” value in the experiment on hCB2 C6.47(257)S mutant was 2-3 fold. Further, the Ki at hCB2 was 0.6 nM.
